Results as given in EP0164904B1, “Method of determining an infusion rate profile and infusion device” (THE UNIVERSITY OF MELBOURNE, priority 1984, dated 1985).

Legend:
[1] = plasma concentration, cited from earlier work
[2] = Infusion generated from the Efflux profile; arterial plasma concentration followed over the infusion period; format: in vivo, patient
From the text: Describing first the preferred method of defining a generalised infusion rate profile as applied to anaesthetic drugs, the method comprises the steps of: • (a) first determining the lean body mass (LBM) of a group of subjects. A convenient way of doing this in human subjects is to use the method described by Hallynck T.H. et al in "Should clearance be normalized to body surface of to lean body mass?" in British Journal of Clinical Pharmacology, p 523-526, Volume 11, (1981), who presented the following formulae:- Males: LBM = 1.10 x weight - 128 x (weight²/height²) Females: LBM = 1.07 x weight - 148 x (weight²/height²) • (b) Following administration of a suitable bolus dose of a desired drug to achieve unconsciousness, the drug is infused at an arbitrary but known rate throughout the infusion. […]

[3] = Plasma Drug Efflux profile derived from actual infusion data (iterative infusion method, scaled to Lean Body Mass); format: in vivo, human subjects; settings: Figure 9, after three iterations
From the text: Central to the approach used in this method is the development of a new concept in pharmacokinetics, the Plasma Drug Efflux. This concept simply stated is that at any instant, if the plasma concentration of a drug is neither rising nor falling, the rate of delivery of the drug to the circulation ie. the infusion rate, must equate to the rate at which the drug is being lost from the circulation. It is - unimportant whether the loss is by distribution, metabolism or excretion.
Then if drug is administered by some arbitrary infusion scheme Q(t), the plasma concentration is C(t) and the rate of drug loss from the plasma may be called the Plasma Drug Efflux, Ep(t).
If the plasma drug concentration is constant so that the amount of drug is not changing then the instantaneous rate of drug influx to the plasma (the infusion rate), and the instantaneous concentration in the plasma may be used as an estimate of drug efflux from the plasma, is an estimate of i.e.: [drawing 1]
The efflux estimate may then be plotted against time, and will essentially describe a dosing-rate/concentration profile as a function of time which will result in a plateau concentration for all time. […]

C=CCC1(C(C)C#CCC)C(=O)N=C(O)N(C)C1=O (centres unmarked) [methohexitone]
concentration likely to result in wakening of the patient ([1]; fall to below): below 3 mg/l
concentration at which severe depression of the heart and breathing may occur [1]: 10000 ng/mL
arterial plasma drug concentrations ([2]; infusion by Efflux profile of Figure 9 in a typical patient (Figure 10), over a period of five hours): constant and desired arterial plasma drug concentrations
departures from the desired level ([2]; infusion by Efflux profile, many patients): no material departures from the desired level in any patient
shape of the Plasma Drug Efflux profile [3]: bears little relationship to an exponential function, having two distinct humps
